Ends that are not written are not given here.
Target: T1, thrombin receptor (Homo sapiens, UniProt P25116)
T1 construct: endogenous in cells; host or cells: washed platelets from fresh blood
T1 sequence (P25116 22-425): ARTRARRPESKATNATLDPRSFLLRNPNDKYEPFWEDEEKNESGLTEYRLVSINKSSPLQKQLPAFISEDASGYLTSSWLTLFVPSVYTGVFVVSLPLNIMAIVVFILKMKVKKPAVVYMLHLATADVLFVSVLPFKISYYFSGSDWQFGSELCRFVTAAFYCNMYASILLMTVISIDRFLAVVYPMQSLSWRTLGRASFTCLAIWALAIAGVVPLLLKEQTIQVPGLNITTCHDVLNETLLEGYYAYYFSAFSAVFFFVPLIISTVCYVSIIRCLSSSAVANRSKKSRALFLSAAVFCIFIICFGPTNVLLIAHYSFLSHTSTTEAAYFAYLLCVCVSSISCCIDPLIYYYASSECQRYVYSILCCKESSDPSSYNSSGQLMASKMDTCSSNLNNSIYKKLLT
Experiment: flow cytometry of thrombin receptor epitopes (SPAN12, ATAP138) on α-thrombin activated platelets
Assay type: cell-based
Settings: peptide 1 mM, α-thrombin 1 nM
Description: Flow cytometry studies were performed to determine whether BK analogs prevent α-thrombin from eliminating an epitope on the thrombin receptor which is lost following α-thrombin cleavage- of the receptor. SPAN12 is an antibody to the thrombin receptor on platelets, which is specific for such an epitope. Studies were also performed to determine the effect of BK analogs on an epitope recognized by monoclonal antibody ATAP 138. The antibody is directed to an epitope on the thrombin receptor which is preserved after α-thrombin cleaves the receptor (FIGS. 7A-7D).
Monoclonal antibody SPAN12 was reared to the 12 amino acids, Asn-Ala-Thr-Leu-Asp-Pro-Arg-Ser-Phe-Leu-Leu-Arg (SEQ ID NO:2), that bridge the α-thrombin cleavage site on the thrombin receptor by the methods of Molinot et al., J. Biol. Chem. 270:ln Press, 1995. […]
Mouse IgG and an antibody to the epitope CD62 were used as controls. […] The fluorescence of bound FITC-anti-IgG to platelets was monitored on an Epics-C flow cytometer (Coulter Electronics, Hialeah, Fla.). Light scatter and fluorescence channels were set at logarithmic gain. […] Green fluorescence was observed through a 525 nm band pass filter. The relative fluorescence intensity of at least 15,000 platelets was analyzed in each sample. […]

RPPGFSPFR [BK, bradykinin]
loss of SPAN12 epitope of thrombin receptor on α-thrombin activated platelets: prevents the loss of the epitope

Reference: patent US6143719A, “Bradykinin analogs as selective thrombin inhibitors” (The Regents of the University of Michigan, priority 1996, dated 2000)
